Test results taken from the NIST ThermoML archive (doi:10.1021/je020189p).
Several values for one entry are separate records, joined by “and”; a condition that tells them apart may be missing. Equal values may be shown once.

[Br][Gd]([Br])[Br] [gadolinium bromide (GdBr3)]
Conditions | vapor or sublimation pressure
895 K, Crystal | 3.31e-05 kPa
910 K, Crystal | 4.17e-05 kPa
914 K, Crystal | 6.31e-05 kPa
917 K, Crystal | 7.76e-05 kPa
919 K, Crystal | 8.91e-05 kPa
920 K, Crystal | 7.76e-05 kPa
926 K, Crystal | 0.000112 kPa
928 K, Crystal | 7.76e-05 kPa
929 K, Crystal | 0.000105 kPa
932 K, Crystal | 0.000138 kPa
934 K, Crystal | 0.000135 kPa
937 K, Crystal | 0.000166 kPa
941 K, Crystal | 0.00017 kPa
945 K, Crystal | 0.000155 kPa and 0.000204 kPa
947 K, Crystal | 0.000234 kPa
951 K, Crystal | 0.000251 kPa and 0.000141 kPa
953 K, Crystal | 0.000324 kPa
956 K, Crystal | 0.000282 kPa and 0.000302 kPa
957 K, Crystal | 0.000331 kPa and 0.000224 kPa
959 K, Crystal | 0.000324 kPa
962 K, Crystal | 0.000447 kPa
964 K, Crystal | 0.000398 kPa
965 K, Crystal | 0.000389 kPa
967 K, Crystal | 0.000468 kPa
968 K, Crystal | 0.000324 kPa and 0.000282 kPa
969 K, Crystal | 0.000468 kPa and 0.000575 kPa
971 K, Crystal | 0.00049 kPa
973 K, Crystal | 0.00055 kPa
974 K, Crystal | 0.00055 kPa
977 K, Crystal | 0.000759 kPa
979 K, Crystal | 0.000468 kPa and 0.000676 kPa and 0.000427 kPa
980 K, Crystal | 0.000759 kPa
981 K, Crystal | 0.000708 kPa
983 K, Crystal | 0.000794 kPa
984 K, Crystal | 0.000562 kPa
986 K, Crystal | 0.000891 kPa
987 K, Crystal | 0.001 kPa
988 K, Crystal | 0.000933 kPa
989 K, Crystal | 0.000708 kPa
990 K, Crystal | 0.00107 kPa and 0.000617 kPa and 0.00115 kPa
993 K, Crystal | 0.0011 kPa
994 K, Crystal | 0.0011 kPa
996 K, Crystal | 0.00123 kPa
997 K, Crystal | 0.00145 kPa
999 K, Crystal | 0.00102 kPa and 0.00155 kPa
1000 K, Crystal | 0.00138 kPa
1001 K, Crystal | 0.00155 kPa
1002 K, Crystal | 0.000912 kPa
1003 K, Crystal | 0.00148 kPa
1004 K, Crystal | 0.00158 kPa
1006 K, Crystal | 0.00162 kPa
1008 K, Crystal | 0.00141 kPa and 0.002 kPa
1011 K, Crystal | 0.00219 kPa and 0.002 kPa
1012 K, Crystal | 0.00195 kPa
1014 K, Crystal | 0.00245 kPa and 0.00219 kPa and 0.00135 kPa
1015 K, Crystal | 0.0017 kPa and 0.00219 kPa
1018 K, Crystal | 0.00191 kPa and 0.00275 kPa
1019 K, Crystal | 0.00251 kPa
1020 K, Crystal | 0.00288 kPa
1023 K, Crystal | 0.00219 kPa and 0.00275 kPa
1025 K, Crystal | 0.00302 kPa
1026 K, Crystal | 0.002 kPa and 0.00347 kPa
1029 K, Crystal | 0.00372 kPa and 0.00275 kPa
1030 K, Crystal | 0.00363 kPa
1032 K, Crystal | 0.00295 kPa and 0.00372 kPa
1034 K, Crystal | 0.00398 kPa
1035 K, Crystal | 0.00339 kPa
1036 K, Crystal | 0.00468 kPa
1041 K, Crystal | 0.00513 kPa and 0.00316 kPa
1043 K, Crystal | 0.00513 kPa
1045 K, Crystal | 0.00575 kPa
1049 K, Crystal | 0.00661 kPa and 0.00417 kPa
1051 K, Crystal | 0.00661 kPa
1057 K, Crystal | 0.00776 kPa and 0.00832 kPa and 0.00525 kPa
1060 K, Liquid | 0.00646 kPa
1067 K, Liquid | 0.00933 kPa
1073 K, Liquid | 0.00851 kPa
1074 K, Liquid | 0.00741 kPa
1078 K, Liquid | 0.012 kPa
1085 K, Liquid | 0.0117 kPa
1087 K, Liquid | 0.0145 kPa
1091 K, Liquid | 0.0115 kPa
1096 K, Liquid | 0.0158 kPa
1098 K, Liquid | 0.0191 kPa
1099 K, Liquid | 0.0138 kPa
1105 K, Liquid | 0.0204 kPa
1108 K, Liquid | 0.0178 kPa and 0.0234 kPa
1114 K, Liquid | 0.024 kPa
1119 K, Liquid | 0.0229 kPa and 0.0302 kPa
1123 K, Liquid | 0.0282 kPa
1128 K, Liquid | 0.0372 kPa
1130 K, Liquid | 0.0302 kPa
1138 K, Liquid | 0.0468 kPa
1140 K, Liquid | 0.0427 kPa and 0.038 kPa
1148 K, Liquid | 0.0513 kPa
1150 K, Liquid | 0.049 kPa and 0.0617 kPa
1155 K, Liquid | 0.0617 kPa
1159 K, Liquid | 0.0589 kPa
1161 K, Liquid | 0.0794 kPa
1168 K, Liquid | 0.0708 kPa
1169 K, Liquid | 0.0912 kPa
1179 K, Liquid | 0.0912 kPa

[Br-].[Br-].[Br-].[Tb+3] [terbium tribromide]
Crystal
Conditions | vapor or sublimation pressure
904 K | 4.79e-05 kPa
908 K | 4.68e-05 kPa
912 K | 3.8e-05 kPa
915 K | 7.59e-05 kPa and 4.79e-05 kPa and 4.17e-05 kPa
917 K | 8.13e-05 kPa
920 K | 8.51e-05 kPa and 8.32e-05 kPa and 4.79e-05 kPa
921 K | 7.59e-05 kPa
922 K | 8.32e-05 kPa and 6.17e-05 kPa
924 K | 0.000105 kPa
925 K | 7.24e-05 kPa
928 K | 9.55e-05 kPa
930 K | 0.000132 kPa and 8.51e-05 kPa
931 K | 0.00012 kPa
933 K | 9.55e-05 kPa
934 K | 8.51e-05 kPa and 0.00012 kPa
935 K | 0.000151 kPa
937 K | 0.000123 kPa and 0.000138 kPa
939 K | 0.000151 kPa
940 K | 0.000182 kPa [middle of 4 runs]
941 K | 0.000115 kPa
943 K | 0.000141 kPa
944 K | 0.000209 kPa and 0.000186 kPa
945 K | 0.000186 kPa
947 K | 0.000214 kPa
948 K | 0.00024 kPa and 0.000141 kPa
950 K | 0.000182 kPa and 0.000166 kPa
954 K | 0.000295 kPa
955 K | 0.000191 kPa and 0.000269 kPa
956 K | 0.000229 kPa
957 K | 0.000331 kPa and 0.000229 kPa and 0.000275 kPa
958 K | 0.000331 kPa and 0.000288 kPa
960 K | 0.000363 kPa and 0.000316 kPa
962 K | 0.000347 kPa [middle of 4 runs]
964 K | 0.000288 kPa and 0.000389 kPa
968 K | 0.000295 kPa
969 K | 0.000363 kPa
970 K | 0.000501 kPa
971 K | 0.000355 kPa
973 K | 0.000537 kPa and 0.000501 kPa
974 K | 0.000575 kPa and 0.000355 kPa
975 K | 0.000427 kPa
976 K | 0.000501 kPa
977 K | 0.000427 kPa and 0.000575 kPa
978 K | 0.000617 kPa
980 K | 0.000427 kPa
981 K | 0.000661 kPa
983 K | 0.000537 kPa and 0.000741 kPa
988 K | 0.000871 kPa
989 K | 0.000832 kPa
990 K | 0.000912 kPa
991 K | 0.001 kPa
992 K | 0.00107 kPa
993 K | 0.00107 kPa and 0.001 kPa
999 K | 0.00115 kPa
1000 K | 0.00126 kPa
1002 K | 0.00132 kPa
1003 K | 0.00138 kPa
1004 K | 0.00148 kPa and 0.00158 kPa and 0.00129 kPa
1007 K | 0.00155 kPa
1012 K | 0.00174 kPa
1014 K | 0.00166 kPa and 0.00209 kPa
1015 K | 0.002 kPa and 0.00224 kPa
1019 K | 0.00257 kPa
1020 K | 0.00224 kPa
1024 K | 0.0024 kPa
1025 K | 0.00263 kPa and 0.00295 kPa
1030 K | 0.00295 kPa
1032 K | 0.00295 kPa
1035 K | 0.00331 kPa and 0.00417 kPa
1039 K | 0.00398 kPa
1042 K | 0.00537 kPa
1045 K | 0.00468 kPa
1047 K | 0.00575 kPa
1049 K | 0.00575 kPa
1051 K | 0.00676 kPa
1054 K | 0.00646 kPa
1058 K | 0.00708 kPa
1059 K | 0.00851 kPa and 0.00832 kPa
1064 K | 0.00912 kPa
1067 K | 0.01 kPa
1068 K | 0.011 kPa and 0.0115 kPa
1071 K | 0.0112 kPa
1076 K | 0.0141 kPa and 0.0129 kPa
1078 K | 0.0141 kPa
1085 K | 0.0182 kPa
1088 K | 0.0174 kPa and 0.0158 kPa
1099 K | 0.0229 kPa
1108 K | 0.0288 kPa
